The values below come from US20230117034A1, “PYRAZOLOTRIAZINES” (Bayer Aktiengesellschaft, priority 2019, published 2023).

Test [1] relates to BRCA1 mRNA expression in MDA-MB-231 cells. In words: qRT-PCR assay: BRCA1 mRNA expression in MDA-MB-231. The test is classed as cell-based, human. As to conditions: Homo sapiens, MDA-MB-231, Inhibition of BRCA1 mRNA expression in MDA-MB-231 cells; median; read-out: RTqPCR-MDA-MB-231, IC50, BRCA1 (median). Here is the method: 3. qRT-PCR Assay: BRCA, ATR, MCL1 in MDA-MB-231, CAL-120
Tissue cultured human MDA-MB-231 human breast cancer cells were plated in 500 microL per well at 200,000 cells/well in a 24 well microtiter plate. After 24 h, the cells were exposed continuously for 24 h to test substances (substances were added with Tecan HP 0300 Dispenser). RNA was prepared using Qiagen RNeasy MiniKit (#74106), RNA was quantified using a NanoDrop Equipment, and 600 nano gamms of RNA was coverted to cDNA using a SuperScript VILO kit (Thermofisher #11755050) followed by qPCR amplification. BRCA1 and ATR gene expression was measured by RT-qPCR and normalised to GAPDH housekeeping gene expression. qPCR primer sets have been purchased from Thermo Fisher Scientific/Applied Biosystems: BRCA1, #Hs 01556193; ATR, #Hs 00992123; GAPDH, #Hs 03929097.

Test [2] deals with CAL-120, human breast adenocarcinoma cells. The test is described as follows: Proliferation assay CAL-120 (crystal violet, 4 days). In kind it is cell-based. Particulars: Homo sapiens, CAL-120, 96 h, CAL-120 cells, median, read-out: Prolif-CAL-120, IC50-[mol/l] (median). On the procedure:
Human tumour cells were originally obtained from the American Type Culture Collection (ATCC), or from the Deutsche Sammlung von Mikroorganismen und Zellkulturen (DSMZ, German Collection of Microorganisms and Cell Cultures). Cultivated tumour cells (CAL-120, human breast adenocarcinoma cells, DSMZ ACC-459; MDA-MB-231, human breast cancer cells, ATCC HTB-26) were plated at a density of 4,000 cells/well in a 96-well multititer plate in 200 microL of their respective growth medium supplemented 10% fetal calf serum. After 24 hours, the cells of one plate (zero-point plate) were stained with crystal violet (see below), while the medium of the other plates was supplemented with the test substances in various concentrations (0 micromol/L, as well as in the range of 0.01-10 micromol/L; the final concentration of the solvent dimethyl sulfoxide was adjusted to 0.1%) using a Tecan HP D300 Digital Dispenser. The cells were incubated for 4 days in the presence of test substances. Cell proliferation was determined by staining the cells with crystal violet: the cells were fixed by adding 20 microL/measuring point of an 11% glutaric aldehyde solution for 15 minutes at room temperature. After three washing cycles of the fixed cells with water, the plates were dried at room temperature. The cells were stained by adding 100 microL/measuring point of a 0.1% crystal violet solution (pH 3.0). After three washing cycles of the stained cells with water, the plates were dried at room temperature. The dye was dissolved by adding 100 microL/measuring point of a 10% acetic acid solution. The extinction was determined by photometry at a wavelength of 595 nm. The change of cell number, in percent, was calculated by normalization of the measured values to the extinction values of the zero-point plate (=0%) and the extinction of the untreated (0 μM) cells (=100%). The IC50 values (inhibitory concentration at 50% of maximal effect) were determined by means of a 4 parameter fit.

Test [3] concerns the target T1, CDK12 (nuclear staining in CAL-120 cells) (Homo sapiens, UniProt Q9NYV4).
T1 construct: endogenous in cells; host or cells: CAL-120 human breast cancer cells (DSMZ ACC 459)
In words: CDK12 nuclear protein level: immunofluorescence/high content analysis (CAL-120). The test is classed as cell-based. Particulars: for DC50: CAL-120 cells, 24 h, immunofluorescence, 50% reduction of nuclear CDK12 staining intensity, median, read-out: CDK12 degradation IF, DC50- [mol/l] (median); for (IC50 CDK12 high ATP) to (Degradation DC50 CDK12) ratio: ratio of IC50 CDK12 high ATP kinase assay to DC50 CDK12 degradation (IF, CAL-120). Here is the method: In the context of the present invention, the term “DC50 CDK12” refers to the DC50 values obtained according to the assay described in this section (7) herein below, i.e. the DC50 values for the degradation of CDK12.
Plates are then incubated for 24 h at 37° C. in an humidified incubator and fixed with 4% PFA for 10 min. […] Nuclear and cytoplasmic intensity as well as the nuclear/cytoplasmic intensity ratio is determined by automated image analysis using custom generated scripts (MetaXpress). Data is then transferred to Genedata Screener software, normalized to DMSO and control and DC50 values (degrading concentration to achieve 50% reduction of nuclear CDK12 staining intensity relative to controls) are reported.

T1 sequence (Q9NYV4 whole entry): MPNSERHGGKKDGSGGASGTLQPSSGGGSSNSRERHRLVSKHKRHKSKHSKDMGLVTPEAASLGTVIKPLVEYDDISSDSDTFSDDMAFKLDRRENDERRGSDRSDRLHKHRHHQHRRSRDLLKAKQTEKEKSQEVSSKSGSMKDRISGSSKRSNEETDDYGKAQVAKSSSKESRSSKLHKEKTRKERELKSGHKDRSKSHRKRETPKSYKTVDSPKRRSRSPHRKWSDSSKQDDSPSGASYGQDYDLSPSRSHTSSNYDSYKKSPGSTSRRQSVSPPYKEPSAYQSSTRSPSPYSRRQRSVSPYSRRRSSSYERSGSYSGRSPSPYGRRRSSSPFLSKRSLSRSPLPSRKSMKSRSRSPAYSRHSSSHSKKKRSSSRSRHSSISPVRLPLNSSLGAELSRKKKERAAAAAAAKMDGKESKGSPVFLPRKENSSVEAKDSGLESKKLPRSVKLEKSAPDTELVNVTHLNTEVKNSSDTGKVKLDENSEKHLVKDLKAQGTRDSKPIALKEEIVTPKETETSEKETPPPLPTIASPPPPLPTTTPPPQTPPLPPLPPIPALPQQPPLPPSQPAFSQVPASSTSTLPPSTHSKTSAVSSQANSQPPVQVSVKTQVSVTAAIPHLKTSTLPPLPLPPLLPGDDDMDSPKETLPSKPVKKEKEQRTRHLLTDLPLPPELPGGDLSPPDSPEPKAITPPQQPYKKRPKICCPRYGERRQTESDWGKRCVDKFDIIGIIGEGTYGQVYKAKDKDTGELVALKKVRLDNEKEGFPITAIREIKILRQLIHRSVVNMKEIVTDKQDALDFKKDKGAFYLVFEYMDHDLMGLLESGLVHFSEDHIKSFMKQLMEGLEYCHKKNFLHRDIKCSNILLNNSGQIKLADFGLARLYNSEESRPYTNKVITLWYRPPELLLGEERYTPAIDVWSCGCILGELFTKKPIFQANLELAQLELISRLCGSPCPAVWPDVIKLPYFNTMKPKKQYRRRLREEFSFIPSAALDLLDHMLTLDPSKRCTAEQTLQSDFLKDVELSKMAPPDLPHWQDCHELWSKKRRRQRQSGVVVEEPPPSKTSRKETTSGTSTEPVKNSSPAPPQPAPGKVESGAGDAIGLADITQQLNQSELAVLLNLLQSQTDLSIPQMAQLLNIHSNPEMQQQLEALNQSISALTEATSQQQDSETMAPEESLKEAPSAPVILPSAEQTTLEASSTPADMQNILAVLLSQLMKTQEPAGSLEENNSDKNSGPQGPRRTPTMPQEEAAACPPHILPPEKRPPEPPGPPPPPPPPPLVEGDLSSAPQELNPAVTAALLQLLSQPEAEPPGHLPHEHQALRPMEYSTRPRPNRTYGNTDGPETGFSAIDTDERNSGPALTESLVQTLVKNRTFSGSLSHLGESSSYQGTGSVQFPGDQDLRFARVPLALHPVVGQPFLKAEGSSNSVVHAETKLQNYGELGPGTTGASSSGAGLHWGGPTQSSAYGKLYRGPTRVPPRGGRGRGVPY
T1 sequence (O75909 whole entry partner): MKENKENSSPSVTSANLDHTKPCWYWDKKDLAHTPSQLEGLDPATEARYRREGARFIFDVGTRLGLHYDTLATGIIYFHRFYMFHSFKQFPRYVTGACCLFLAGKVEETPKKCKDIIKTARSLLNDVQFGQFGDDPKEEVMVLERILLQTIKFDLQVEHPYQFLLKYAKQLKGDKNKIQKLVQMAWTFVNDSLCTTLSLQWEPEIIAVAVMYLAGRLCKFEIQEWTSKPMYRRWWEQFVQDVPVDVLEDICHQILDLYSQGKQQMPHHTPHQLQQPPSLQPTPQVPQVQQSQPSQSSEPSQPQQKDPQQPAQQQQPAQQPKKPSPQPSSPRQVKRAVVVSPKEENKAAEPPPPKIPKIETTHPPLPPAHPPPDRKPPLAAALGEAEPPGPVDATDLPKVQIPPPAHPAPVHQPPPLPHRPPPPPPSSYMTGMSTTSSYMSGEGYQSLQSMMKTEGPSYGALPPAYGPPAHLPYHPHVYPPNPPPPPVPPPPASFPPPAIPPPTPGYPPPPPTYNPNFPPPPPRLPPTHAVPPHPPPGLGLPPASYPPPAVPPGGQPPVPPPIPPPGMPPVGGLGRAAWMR

In the case of `O=S1(=O)CCN(c2nc(NCc3nc4ccccc4[nH]3)n3ncc(Br)c3n2)CC1` [Example 166, 4-(4-{[(1H-benzimidazol-2-yl)methyl]amino}-8-bromopyrazolo[1,5-a][1,3,5]triazin-2-yl)-1 lambda^6-thiomorpholine-1,1-dione], the figures for the IC50 in test [1] and in test [2] were 46.2 nM and 20.1 nM, respectively. In addition, the DC50 in test [3] was found to be 3.39 nM. Also, in test [3], the “(IC50 CDK12 high ATP) to (Degradation DC50 CDK12) ratio” value is on record as 1800.
Turning to `Brc1cnn2c(NCc3nc4ccccc4[nH]3)nc(N3CCC3)nc12` [Example 143, 2-(azetidin-1-yl)-N-[(1H-benzimidazol-2-yl)methyl]-8-bromopyrazolo[1,5-a][1,3,5]triazin-4-amine], the IC50 in test [2] turned out to be 306 nM. In addition, in test [3], the DC50 was 30.9 nM and the “(IC50 CDK12 high ATP) to (Degradation DC50 CDK12) ratio” value was over 646.
As to `NCCc1ccc2[nH]c(CNc3nc(N4CCOCC4)nc4c(Br)cnn34)nc2c1.O=CO` [Example 113, formic acid-N-{[5-(2-aminoethyl)-1H-benzimidazol-2-yl]methyl}-8-bromo-2-(morpholin-4-yl)pyrazolo[1,5-a][1,3,5]triazin-4-amine (1/1)], in test [1], the IC50 was 21.1 nM. Besides, in test [3], the DC50 came out at 8.64 nM and the “(IC50 CDK12 high ATP) to (Degradation DC50 CDK12) ratio” value is 197.
As for `CC(C)c1cnn2c(NCc3nc4ccccc4[nH]3)nc(N3CCOC[C@H]3C)nc12` [Example 7, N-[(1H-benzimidazol-2-yl)methyl]-2-[(3R)-3-methylmorpholin-4-yl]-8-(propan-2-yl)pyrazolo[1,5-a][1,3,5]triazin-4-amine], the IC50 in test [1] was 203 nM. In test [3], the DC50 was 63.6 nM and the “(IC50 CDK12 high ATP) to (Degradation DC50 CDK12) ratio” value is 161.
Turning to `CN1CCN(c2nc(NCc3nnc(-c4ccccc4)[nH]3)n3ncc(Br)c3n2)CC1=O` [Example 121, 4-(8-bromo-4-{[(5-phenyl-4H-1,2,4-triazol-3-yl)methyl]amino}pyrazolo[1,5-a][1,3,5]triazin-2-yl)-1-methylpiperazin-2-one], the results for the IC50 in test [1] and in test [2] were 344 nM and 404 nM, respectively. In addition, in test [3], the DC50 amounted to 43.5 nM. Also, in test [3], the “(IC50 CDK12 high ATP) to (Degradation DC50 CDK12) ratio” value came to 172.
Turning to `N=S1(=O)CCN(c2nc(NCc3nc4ccccc4[nH]3)n3ncc(Br)c3n2)CC1` [Example 145, 4-(4-{[(1H-benzimidazol-2-yl)methyl]amino}-8-bromopyrazolo[1,5-a][1,3,5]triazin-2-yl)-1-imino-1lambda^6-thiomorpholin-1-one], the IC50 in test [1] is 190 nM. Further, the IC50 in test [2] was determined as 223 nM. In addition, in test [3], the DC50 amounted to 16.8 nM and the “(IC50 CDK12 high ATP) to (Degradation DC50 CDK12) ratio” value is listed as 751.
With `CC(C)c1cnn2c(NCc3nc4ccccc4[nH]3)nc(N3CC4(COC4)C3)nc12` [Example 9, N-[(1H-benzimidazol-2-yl)methyl]-2-(2-oxa-6-azaspiro[3.3]heptan-6-yl)-8-(propan-2-yl)pyrazolo[1,5-a][1,3,5]triazin-4-amine], the IC50 in test [1] is 255 nM. In test [3], the DC50 turned out to be 80.9 nM and the “(IC50 CDK12 high ATP) to (Degradation DC50 CDK12) ratio” value is over 247.
On to `Brc1cnn2c(NCc3nc4ccccc4[nH]3)nc(N3CCN4CCC[C@@H]4C3)nc12` [Example 149, N-[(1H-benzimidazol-2-yl)methyl]-8-bromo-2-[(8aR)-hexahydropyrrolo[1,2-a]pyrazin-2 (1 H)-yl]pyrazolo[1,5-a][1,3,5]triazin-4-amine], for which the IC50 in test [1] is 148 nM; in test [2], 164 nM. In test [3], the DC50 came to 12.6 nM. For the same compound, the “(IC50 CDK12 high ATP) to (Degradation DC50 CDK12) ratio” value in test [3] was found to be 495.
As for `OCC1CCN1c1nc(NCc2nc3ccccc3[nH]2)n2ncc(Br)c2n1` (stereo not drawn) [Example 147, [1-[4-(1H-benzimidazol-2-ylmethylamino)-8-bromo-pyrazolo[1,5-a][1,3,5]triazin-2-yl]azetidin-2-yl]methanol], the IC50 in test [1] amounted to 76.7 nM. For the same compound, the IC50 in test [2] is 310 nM. Further, in test [3], the DC50 is 13.9 nM and the “(IC50 CDK12 high ATP) to (Degradation DC50 CDK12) ratio” value was 359.
Take `Brc1cnn2c(NCc3nc4ccccc4[nH]3)nc(N3CCN(C4CC4)CC3)nc12` [Example 138, N-[(1H-benzimidazol-2-yl)methyl]-8-bromo-2-(4-cyclopropylpiperazin-1-yl)pyrazolo[1,5-a][1,3,5]triazin-4-amine]: the IC50 in test [2] turned out to be 451 nM. In test [3], the DC50 was determined as 76 nM and the “(IC50 CDK12 high ATP) to (Degradation DC50 CDK12) ratio” value is recorded as over 263.
The like results for `CN1CCN(c2nc(NCc3nc4ccccc4[nH]3)n3ncc(Br)c3n2)C(CO)C1` (stereo not drawn) [Example 155, [1-[4-(1H-benzimidazol-2-ylmethylamino)-8-bromo-pyrazolo[1,5-a][1,3,5]triazin-2-yl]-4-methyl-piperazin-2-yl]methanol] were, in that order, 75.3 nM, 47.2 nM and 79.
As to `FC(F)(F)CN1CCN(c2nc(NCc3nc4ccccc4[nH]3)n3ncc(Br)c3n2)CC1` [Example 139, N-[(1H-benzimidazol-2-yl)methyl]-8-bromo-2-[4-(2,2,2-trifluoroethyl)piperazin-1-yl]pyrazolo[1,5-a][1,3,5]triazin-4-amine], the IC50 in test [2] came to 446 nM. For the same compound, in test [3], the DC50 is 110 nM and the “(IC50 CDK12 high ATP) to (Degradation DC50 CDK12) ratio” value is 140.
`CC(=O)NCCCc1cccc2[nH]c(CNc3nc(N4CCOCC4)nc4c(Br)cnn34)nc12.O=CO` [Example 115, formic acid-N-{3-[2-({[8-bromo-2-(morpholin-4-yl)pyrazolo[1,5-a][1,3,5]triazin-4-yl]amino}methyl)-1H-benzimidazol-4-yl]propyl}acetamide (1/1)]: in test [3], the DC50 turned out to be 45.3 nM and the “(IC50 CDK12 high ATP) to (Degradation DC50 CDK12) ratio” value is 256.
Take `C[C@@H]1CCCCN1c1nc(NCc2nc3ccccc3[nH]2)n2ncc(Br)c2n1` [Example 140, N-[(1H-benzimidazol-2-yl)methyl]-8-bromo-2-[(2R)-2-methylpiperidin-1-yl]pyrazolo[1,5-a][1,3,5]triazin-4-amine]: the IC50 in test [2] stood at 255 nM. Besides, in test [3], the DC50 is 58.3 nM and the “(IC50 CDK12 high ATP) to (Degradation DC50 CDK12) ratio” value is on record as 140.
For the compound `NCCCc1cccc2[nH]c(CNc3nc(N4CCOCC4)nc4c(Br)cnn34)nc12.O=CO` [Example 114, formic acid-N-{[4-(3-aminopropyl)-1H-benzimidazol-2-yl]methyl}-8-bromo-2-(morpholin-4-yl)pyrazolo[1,5-a][1,3,5]triazin-4-amine (1/1)], in test [3], the DC50 came to 38.8 nM and the “(IC50 CDK12 high ATP) to (Degradation DC50 CDK12) ratio” value is listed as 210.
In the case of `CN1CCN(c2nc(NCc3nc4ccccc4[nH]3)n3ncc(Br)c3n2)CC1=O` [Example 131, 4-(4-{[(1H-benzimidazol-2-yl)methyl]amino}-8-bromopyrazolo[1,5-a][1,3,5]triazin-2-yl)-1-methylpiperazin-2-one], the IC50 in test [2] turned out to be 595 nM. Moreover, in test [3], the DC50 was 122 nM and the “(IC50 CDK12 high ATP) to (Degradation DC50 CDK12) ratio” value came out at 91.
Consider `NCCc1cccc2[nH]c(CNc3nc(N4CCOCC4)nc4c(Br)cnn34)nc12` [Example 112, N-{[7-(2-aminoethyl)-1H-benzimidazol-2-yl]methyl}-8-bromo-2-(morpholin-4-yl)pyrazolo[1,5-a][1,3,5]triazin-4-amine], for which the IC50 in test [1] was 23.7 nM. Moreover, in test [3], the DC50 came out at 50 nM and the “(IC50 CDK12 high ATP) to (Degradation DC50 CDK12) ratio” value was found to be 134.
